{
  "source": "paper PMC3880013",
  "about": "“Toward an Understanding of Agonist Binding to Human Orexin-1 and Orexin-2 Receptors with G-Protein-Coupled Receptor Modeling and Site-Directed Mutagenesis” (Biochemistry, 2013)",
  "key": {"hOX2 H350A": {"system": "hOX2 H350A", "settings": "cited from earlier work; for ratio EC50(mut)/EC50(WT): hOX2 H350A (7.39) relative to wild type, [Ca2+]i response, ref 37 Malherbe et al.", "source_text": "We observed that in OX1, H^7.39 interacts with residues L16 and L20 of helix 1 of OxA (see Figure 6A). […] On the other hand, in OX2, H^7.39 interacts with L20 and not with L16 (see Figure 6B), and ..."}, "hOX2 F227A": {"system": "hOX2 F227A", "settings": "cited from earlier work; for ratio EC50(mut)/EC50(WT): hOX2 F227A (5.42) relative to wild type, [Ca2+]i response, ref 37 Malherbe et al.", "source_text": "In the case of OX1, F^5.42 interacts with H26 of OxA that, based on the SDM experiments, has an only moderate impact on potency (see Figure 6A). This is in contrast to OX2 in which F^5.42 interacts with key residue I30 (see Figure 6B). Mutation of I30 of OxA to alanine complet ..."}, "hOX2 Q134A [1]": {"system": "hOX2 Q134A", "parameters": "method as in earlier work", "settings": "hOX2 Q134A (3.32) relative to wild type; [Ca2+]i response; ref 37 Malherbe et al.; cited from earlier work"}, "hOX1 V130A": {"system": "hOX1 V130A", "settings": "hOX1 V130A (3.36) relative to wild type, [Ca2+]i response, ref 37 Malherbe et al., cited from earlier work"}, "hOX2 Y223A": {"system": "hOX2 Y223A", "parameters": "method as in earlier work", "settings": "hOX2 Y223A (5.38) relative to wild type, [Ca2+]i response, ref 37 Malherbe et al., cited from earlier work"}, "hOX2 F228A": {"system": "hOX2 F228A", "settings": "hOX2 F228A (5.43) relative to wild type; [Ca2+]i response; ref 37 Malherbe et al.; cited from earlier work", "source_text": "(§1) Table 1 Comparison of the Effects of Different Mutations in hOX1 and hOX2 on the Binding Potencies of Orexin-A and Orexin-B ^a | column: hOX2 / ratio ^b of Orexin-A"}, "hOX2 V353A": {"system": "hOX2 V353A", "settings": "hOX2 V353A (7.42) relative to wild type; [Ca2+]i response; ref 37 Malherbe et al.; cited from earlier work", "source_text": "as §1"}, "hOX2 T135A": {"system": "hOX2 T135A", "settings": "hOX2 T135A (3.33) relative to wild type; [Ca2+]i response; ref 37 Malherbe et al.; cited from earlier work", "source_text": "as §1"}, "hOX2 V138A": {"system": "hOX2 V138A", "settings": "hOX2 V138A (3.36) relative to wild type; [Ca2+]i response; ref 37 Malherbe et al.; cited from earlier work", "source_text": "as §1"}, "hOX2 I320A": {"system": "hOX2 I320A", "settings": "hOX2 I320A (6.51) relative to wild type; [Ca2+]i response; ref 37 Malherbe et al.; cited from earlier work", "source_text": "as §1"}, "hOX2 S139A": {"system": "hOX2 S139A", "settings": "hOX2 S139A (3.37) relative to wild type; [Ca2+]i response; ref 37 Malherbe et al.; cited from earlier work", "source_text": "as §1"}, "hOX2 Y354A": {"system": "hOX2 Y354A", "settings": "hOX2 Y354A (7.43) relative to wild type; [Ca2+]i response; ref 37 Malherbe et al.; cited from earlier work", "source_text": "as §1"}, "hOX2 Y317F": {"system": "hOX2 Y317F", "settings": "hOX2 Y317F (6.48) relative to wild type; [Ca2+]i response; ref 37 Malherbe et al.; cited from earlier work", "source_text": "as §1"}, "hOX2 Q134A [2]": {"system": "hOX2 Q134A", "assay": "Calcium flux assay, CHO-K1 cells stably expressing Orexin receptor mutant", "type": "cell-based, human", "settings": "hOX2 Q134A (3.32) relative to wild type, CHO-K1, Fluo-4AM, this work", "method": "(§2) A combination of overlap and mismatch polymerase chain reaction (PCR) was used to introduce mutations into the corresponding Orexin-1 and Orexin-2 cDNAs as described by us previously.[62] Each mutation was made via the generation of two overlapping PCR fragments with PfuUltra II Fusion HS DNA Polymerase (Strategene). The two products were extracted, and a second round of PCR was performed via combination of both fragments with 5′ and 3′ gene specific primers (containing BamHI and NotI restriction sites, respectively). The resulting gel-purified products were then cloned into expression vector pFB-Neo for subsequent generation of stable cell lines. Constructs were confirmed via sequencing. Each verified cDNA was subsequently used to generate single, stably expressing clones in the CHO-K1 cell line.\n(§3) Standard calcium flux assays were used to assess the functionality of each OX receptor mutant. Each CHO-K1 Orexin mutant was seeded into tissue culture-treated, 384-well, black clear-bottom plates (CellBind Corning 7086), at a density of 7500 cells/well in culture medium and maintained in an incubator (5% CO2 at 37 °C) overnight. The cell medium was removed, and the cells were incubated in 20 μL of assay buffer (4 μM Fluo-4AM in HBSS with 0.1% BSA) for 90 min at 37 °C. After incubation, the dye was removed and 45 μL of fresh buffer, without dye, was applied. Antagonists (5 μL) were applied, and after incubation for an additional 20 min at 37 °C, 20 μL of receptor specific agonists was applied and the calcium flux monitored using a Flex Station (Molecular Devices) over a period of 1 min. In all cases, the EC80 specific for the individual mutant as determined in previous experiments was reported."}, "hOX1 Y311F": {"system": "hOX1 Y311F", "assay": "Calcium flux assay, CHO-K1 cells stably expressing Orexin receptor mutant", "type": "cell-based, human", "settings": "hOX1 Y311F (6.48) relative to wild type, CHO-K1, Fluo-4AM, this work", "method": "as §2, §3"}, "hOX1 Q179A": {"system": "hOX1 Q179A", "assay": "Calcium flux assay, CHO-K1 cells stably expressing Orexin receptor mutant", "type": "cell-based, human", "settings": "hOX1 Q179A (4.60) vs wild type, CHO-K1, Fluo-4AM, this work", "method": "as §2, §3"}, "hOX2 Q187A": {"system": "hOX2 Q187A", "assay": "Calcium flux assay, CHO-K1 cells stably expressing Orexin receptor mutant", "type": "cell-based, human", "settings": "hOX2 Q187A (4.60) relative to wild type, CHO-K1, Fluo-4AM, this work", "method": "as §2, §3"}, "hOX2 F227W": {"system": "hOX2 F227W", "assay": "Calcium flux assay, CHO-K1 cells stably expressing Orexin receptor mutant", "type": "cell-based, human", "settings": "hOX2 F227W (5.42) relative to wild type, CHO-K1, Fluo-4AM, this work", "method": "as §2, §3"}},
  "note": "Where two headings read alike, the source gives them in different places. Marks after values point to notes of the source that are not given here. Where no end group is shown, it is not given here.",
  "data": [
    {"substance": "Orexin-A (QPLPDCCRQKTCSCRLYELLHGAGNHAAGILTL; ends and bridges not checked; cysteine pairing not given here; UniProt O43612 34-66, looked up) [hypothalamic neuropeptide, 33 amino acids, two intramolecular disulfide bonds C6-C12 and C7-C14; natural OX1/OX2 agonist]", "values": [
      {"measurement": "decrease in Emax", "setting": "hOX2 H350A; OX2 H7.39 (H350) mutated to alanine", "result": 63.0, "unit": "%"},
      {"measurement": "ratio EC50(mut)/EC50(WT)", "setting": "hOX2 H350A", "result": "49.5 ^c fold"},
      {"measurement": "ratio EC50(mut)/EC50(WT)", "setting": "hOX2 H350A; listed as OxA", "result": 49.5, "unit": "fold"},
      {"measurement": "efficacy (reduced to)", "setting": "hOX2 F227A; hOX2 F5.42 (F227) mutated to alanine", "result": 64.3, "unit": "%"},
      {"measurement": "ratio EC50(mut)/EC50(WT)", "setting": "hOX2 F227A", "result": "240.3 ^c fold"},
      {"measurement": "ratio EC50(mut)/EC50(WT)", "setting": "hOX2 F227A; listed as OxA", "result": 240.3, "unit": "fold"},
      {"measurement": "ratio EC50(mut)/EC50(WT)", "setting": "hOX2 Q134A [1]", "result": 22.3, "unit": "fold"},
      {"measurement": "ratio EC50(mut)/EC50(WT)", "setting": "hOX1 V130A", "result": "30.6 ^c fold"},
      {"measurement": "ratio EC50(mut)/EC50(WT)", "setting": "hOX1 V130A; listed as OxA", "result": 30.6, "unit": "fold"},
      {"measurement": "ratio EC50(mut)/EC50(WT)", "setting": "hOX2 Y223A", "result": "183.9 ^c fold"},
      {"measurement": "ratio EC50(mut)/EC50(WT)", "setting": "hOX2 Y223A; listed as OxA", "result": 183.9, "unit": "fold"},
      {"measurement": "ratio EC50(mut)/EC50(WT)", "setting": "hOX2 F228A", "result": "3.0 ^c fold"},
      {"measurement": "ratio EC50(mut)/EC50(WT)", "setting": "hOX2 V353A", "result": "1.9 ^c fold"},
      {"measurement": "ratio EC50(mut)/EC50(WT)", "setting": "hOX2 T135A", "result": "0.8 ^c fold"},
      {"measurement": "ratio EC50(mut)/EC50(WT)", "setting": "hOX2 V138A", "result": "4.4 ^c fold"},
      {"measurement": "ratio EC50(mut)/EC50(WT)", "setting": "hOX2 I320A", "result": "0.9 ^c fold"},
      {"measurement": "ratio EC50(mut)/EC50(WT)", "setting": "hOX2 S139A", "result": "2.5 ^c fold"},
      {"measurement": "ratio EC50(mut)/EC50(WT)", "setting": "hOX2 Y354A", "result": "3.7 ^c fold"},
      {"measurement": "ratio EC50(mut)/EC50(WT)", "setting": "hOX2 Y317F", "result": "1.3 ^c fold"},
      {"measurement": "ratio EC50(mut)/EC50(WT)", "setting": "hOX2 Q134A [2]", "result": 15.1, "unit": "fold"},
      {"measurement": "ratio EC50(mut)/EC50(WT)", "setting": "hOX1 Y311F", "result": "1.6 ^d fold"},
      {"measurement": "fold improvement in potency relative to wild type", "setting": "hOX1 Q179A", "result": 17.8, "unit": "fold improvement"},
      {"measurement": "ratio EC50(mut)/EC50(WT)", "setting": "hOX2 Q187A", "result": "1.3 ^d fold"},
      {"measurement": "ratio EC50(mut)/EC50(WT)", "setting": "hOX2 F227W", "result": "84.2 ^d fold"}
    ]}
  ]
}
